Structures can show the parent of a compound that is named as a salt.
Key:
[1] = biological target: T1, α4β1 integrin (Jurkat cell adhesion to immobilized CS-1 derived peptide CLHPGEILDVPST) (Homo sapiens, UniProt P05556+P13612); test: Jurkat-CS-1 Assay; assay type: cell-based; conditions: Jurkat cells on CS-1 peptide coated plates
T1 construct: 100 μl of Jurkat cells (2.5×10^6 cells/ml) in DMEM plus BSA; endogenous in cells; host or cells: Jurkat T-cell line
Method: The CS-1 derived peptide, CLHPGEILDVPST, and the scrambled control peptide, CLHGPIELVSDPT, were synthesized on a Beckman 990 synthesizer using t-Boc methodology. The peptides were immobilized onto microtiter plates using the heterobifunctional crosslinker 3-(2-pyridyldithio)propionic acid N-hydroxysuccinimide ester (SPDP) as reported by Pierschbacher et al., Proc. Natl. Acad. USA, 80:1224-1227 (1983). Microtiter plates were coated with 20 μg/ml HSA for 2 hr. at room temperature, washed once with PBS and derivatized with 10 μg/ml SPDP for 1 hr. After washing, 100 μl of a 100 μg/ml cysteine containing peptide solution which had been recently dissolved was added to the wells and allowed to crosslink to the plates overnight at 4° C. Unbound peptide was removed from plates by washing with PBS. To block non-reacted sites, the plates are coated with 100 μl of a 2.5 mg/ml BSA solution in PBS for 1 hr. at 37° C. 100 μl of Jurkat cells (2.5×10^6 cells/ml) in DMEM plus BSA (2.5 mg/ml) was mixed with an appropriate concentration of the compound to be tested and the mixture was added to peptide coated dishes and incubated for 1 hr. at 37° C. Generally 100, 20, 5 and 1.25 μM concentrations of the compound were tested.
Following this incubation the plates were washed once with PBS and the attached cells were fixed with 3% paraformaldehyde in PBS and stained with 0.5% toluidine blue in 3.7% formaldehyde. The cells were stained overnight at room temperature and the optical density at 590 nm of toluidine blue stained cells was determined using a vertical pathway spectrophotometer to quantitate attachment (VMAX Kinetic Microplate Reader, Molecular Devices, Menlo Park, Calif.). This procedure is a modification of a previously published method (Cardarelli et al, J. Biol. Chem., 269:18668-18673 (1994) and Cardarelli et al, Proc. Natl. Acad. Sci. USA, 83:2647-2651 (1986)).

[2] = biological target: T2, α4β1 integrin (Jurkat T-cell adhesion to IL-1 stimulated endothelial cell monolayers) (Homo sapiens, UniProt P05556+P13612); test: Jurkat-Endothelial Cell Adhesion Assay (Jurkat EC); assay type: cell-based; conditions: Jurkat cells on IL-1 stimulated HUVEC monolayers
T2 construct: a T-cell line, Jurkat, known to express the α4β1 integrin; host or cells: Jurkat T-cell line
Method: The following assay established the activity of the present compounds in inhibiting β1-mediated cell adhesion in a representative in vitro system. This assay measures the adhesive interactions of a T-cell line, Jurkat, known to express the α4β1 integrin, to endothelial monolayers in the presence of test compounds. The test compounds were added in increasing concentrations to T-cells and then the T-cell compound mixture was added to IL-1 stimulated endothelial cell monolayers. The plates were incubated, washed and the percentage of attached cells was quantitated. […] Human umbilical vein endothelial cells were purchased from Clonetics (San Diego, Calif.) at passage number 2. The cells were grown on 0.5% porcine skin gelatin pre-coated flasks (Sigma, St. Louis Mo.) in EGM-UV media (Clonetics, San Diego, Calif.) supplemented with 10% fetal bovine serum. Cells are refed every 2-3 days reaching confluence by day 4 to 6. […] The endothelial cells are not used following passage 6. Am The T-cell line Jurkat was obtained from American Type Tissue Culture Collection (Rockville, Md.) and the cells were cultured in RPMI containing 10% fetal calf serum. The cells were washed twice in Hank's Balanced Salt Solution (HBSS) and resuspended in Dulbecco's […] Eagle's Media (DMEM) containing 2.5 mg/ml Human Serum Albumin (HSA). Jurkat cells (1×10^6 cells/ml) were stained with 10 ng/ml BCECF-AM z z (Molecular Probes, Eugene, Ore.)) in HBSS without phenol red. The cells were loaded with BCECF for 60 minutes in the dark at 37° C., washed 2 times, and resusupended in DMEM-HSA solution.
Confluent endothelial monolayers, grown in 96-well tissue culture plates, were stimulated for 4 hr. at 37° C. with 0.1 ng/ml (˜50 U/ml) recombinant IL-1 (Amgen, Thousand Oaks, Calif.). Following this incubation, the monolayers were washed twice with HBSS and 0.1 ml of DMEM-HSA solution was added. Jurkat cells (5×10^5 cells) were combined with the appropriate concentration of the test compound and 0.1 ml of the Jurkat cell-compound mixture was added to the endothelial cell monolayers. Generally, 100, 20, 5 and 1.25 μM compound concentrations were tested. […] The plates were placed on ice for 5 minutes to allow for Jurkat cell settling and the plates were incubated at 37° C. for 20 minutes. Following this incubation, the monolayers were washed twice with PBS containing 1 mM calcium chloride and 1 mM magnesium chloride and the plates were read using a Millipore Cytofluor 2300 (Marlboro, Mass.). Fluorescence in each well was measured as Arbitrary Fluorescence Units and percent adhesion in the absence of compound was adjusted to 100% and the % adhesion in the presence of compound was calculated. Monolayers were also fixed in 3% paraformaldehyde and evaluated microscopically to verify the adhesion. This procedure is a modification of a previously published method (Cardarelli et al., J. Biol. Chem. 269:18668-18673 (1994)).

T2 sequence (P13612 34-1032): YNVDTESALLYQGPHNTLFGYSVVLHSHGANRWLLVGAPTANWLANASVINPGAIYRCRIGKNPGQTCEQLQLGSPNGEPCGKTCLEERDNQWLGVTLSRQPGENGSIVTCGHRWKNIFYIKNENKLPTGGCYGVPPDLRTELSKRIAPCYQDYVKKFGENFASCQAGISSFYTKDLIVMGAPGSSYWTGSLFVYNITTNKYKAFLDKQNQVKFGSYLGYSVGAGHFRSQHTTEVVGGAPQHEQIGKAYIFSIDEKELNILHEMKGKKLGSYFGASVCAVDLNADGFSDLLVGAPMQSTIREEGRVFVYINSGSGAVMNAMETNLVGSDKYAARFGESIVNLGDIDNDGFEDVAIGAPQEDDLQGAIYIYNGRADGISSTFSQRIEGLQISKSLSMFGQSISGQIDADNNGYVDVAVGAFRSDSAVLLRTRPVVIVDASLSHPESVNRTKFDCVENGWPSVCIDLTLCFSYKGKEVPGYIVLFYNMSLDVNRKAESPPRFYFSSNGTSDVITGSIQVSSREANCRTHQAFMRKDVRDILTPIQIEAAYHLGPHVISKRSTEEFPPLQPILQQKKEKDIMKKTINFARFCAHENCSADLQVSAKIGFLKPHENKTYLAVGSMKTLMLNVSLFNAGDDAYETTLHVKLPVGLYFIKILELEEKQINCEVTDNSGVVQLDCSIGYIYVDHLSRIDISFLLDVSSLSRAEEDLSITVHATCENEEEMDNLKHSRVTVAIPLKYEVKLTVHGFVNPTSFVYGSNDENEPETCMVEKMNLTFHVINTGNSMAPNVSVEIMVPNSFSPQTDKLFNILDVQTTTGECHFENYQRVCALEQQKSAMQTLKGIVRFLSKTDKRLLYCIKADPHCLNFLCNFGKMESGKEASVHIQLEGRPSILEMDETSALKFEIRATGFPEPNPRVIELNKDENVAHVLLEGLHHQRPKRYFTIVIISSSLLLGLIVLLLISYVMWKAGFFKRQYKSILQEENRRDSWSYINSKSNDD
T2 sequence (P05556 21-798): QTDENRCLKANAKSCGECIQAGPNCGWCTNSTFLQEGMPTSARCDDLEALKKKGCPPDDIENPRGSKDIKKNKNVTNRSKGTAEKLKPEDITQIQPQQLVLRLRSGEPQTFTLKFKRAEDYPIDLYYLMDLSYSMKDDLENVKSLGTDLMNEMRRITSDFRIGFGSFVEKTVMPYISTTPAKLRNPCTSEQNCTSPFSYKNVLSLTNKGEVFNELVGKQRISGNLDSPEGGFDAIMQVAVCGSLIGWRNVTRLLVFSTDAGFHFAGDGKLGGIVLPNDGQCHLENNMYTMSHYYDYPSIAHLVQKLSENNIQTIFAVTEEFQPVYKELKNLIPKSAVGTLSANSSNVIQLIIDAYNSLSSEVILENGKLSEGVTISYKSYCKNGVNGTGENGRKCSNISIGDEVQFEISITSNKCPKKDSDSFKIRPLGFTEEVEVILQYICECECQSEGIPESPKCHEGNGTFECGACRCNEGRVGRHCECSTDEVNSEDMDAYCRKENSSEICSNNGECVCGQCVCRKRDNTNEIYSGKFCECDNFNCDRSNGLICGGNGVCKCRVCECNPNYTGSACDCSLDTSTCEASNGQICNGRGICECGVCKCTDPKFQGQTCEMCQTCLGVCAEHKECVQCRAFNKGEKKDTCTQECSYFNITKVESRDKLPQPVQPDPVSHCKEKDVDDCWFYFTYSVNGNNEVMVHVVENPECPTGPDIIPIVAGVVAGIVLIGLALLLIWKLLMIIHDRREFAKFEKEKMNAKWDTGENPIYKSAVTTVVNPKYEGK
T1 sequence (P13612 34-1032): as the sequence (P13612 34-1032) above
T1 sequence (P05556 21-798): as the sequence (P05556 21-798) above

| Structure (SMILES) | IC50 [1] | IC50 [2] |
| --- | --- | --- |
| CC1(C)[C@@H](C(=O)N[C@@H](Cc2ccc(NC(=O)c3c(Cl)cccc3Cl)cc2)C(=O)O)CC[C@@]1(C)C(=O)NCCC#N [Example 216, (1S-cis)-N-[[3-[[(2-Cyanoethyl)amino]carbonyl]-2,2,3-trimethylcyclopentyl]carbonyl]-4-[(2,6-dichlorobenzoyl)amino]-L-phenylalanine] | ≤ 80 nM | ≤ 800 nM |
| CC1(C)[C@@H](C(=O)N[C@@H](Cc2ccc(NC(=O)c3c(Cl)cccc3Cl)cc2)C(=O)O)CC[C@@]1(C)C(=O)N[C@H](CCCCN)C(=O)O (relative stereo) [Example 179] | ≤ 80 nM | 5000 to 10000 nM |
| COC(=O)[C@H](Cc1ccc(NC(=O)c2c(Cl)cccc2Cl)cc1)NC(=O)[C@H]1CC[C@@](C)(C(=O)O)C1(C)C [Example 53, (1S-cis)-N-[(3-Carboxy-2,2,3-trimethylcyclopentyl)carbonyl]-4-[(2,6-dichlorobenzoyl)amino]-L-phenylalanine methyl ester] | 500 to 1000 nM | 800 to 5000 nM |
| CC1(C)[C@@H](C(=O)N[C@@H](Cc2ccc(OCc3c(Cl)cccc3Cl)cc2)C(=O)O)CC[C@@]1(C)C(=O)NCC(N)=O [Example 187, (1S-cis)-N-[[3-[[(2-amino-2-oxoethyl)-amino]carbonyl]-2,2,3-trimethylcyclopentyl]carbonyl]-O-[(2,6-dichlorophenyl)methyl]-L-tyrosine] | 80 to 500 nM | 800 to 5000 nM |
| C[C@H](NC(=O)[C@]1(C)CC[C@H](C(=O)N[C@@H](Cc2ccc(OCc3c(Cl)cccc3Cl)cc2)C(=O)O)C1(C)C)C(=O)O (relative stereo) [Example 188, [1S-[1α, 3α(R)]]-N-[[3-[[(1-Carboxyethyl)amino]carbonyl]-2,2,3-trimethylcyclopentyl]carbonyl]-O-[(2,6-dichlorophenyl)methyl]-L-tyrosine] | 80 to 500 nM | 800 to 5000 nM |
| CC1(C)[C@@H](C(=O)N[C@@H](Cc2ccc(OCc3c(Cl)cccc3Cl)c(O)c2)C(=O)O)CC[C@@]1(C)C(=O)O [Example 65] | 80 to 500 nM | ≤ 800 nM |
| CC1(C)[C@@H](C(=O)N[C@@H](Cc2ccc(NC(=O)c3c(Cl)cccc3Cl)cc2)C(=O)O)CC[C@@]1(C)/C=C/C(=O)O [Example 182, [1S-[1α,3α(E)]]-N-[[3-(2-Carboxyethenyl)-2,2,3-trimethylcyclopentyl]carbonyl]-4-[(2,6-dichlorobenzoyl)amino]-L-phenylalanine disodium salt] | ≤ 80 nM | ≤ 800 nM |
| CC1(C)[C@@H](C(=O)N[C@@H](Cc2ccc(NC(=O)c3c(Cl)cccc3Cl)cc2)C(=O)O)CC[C@@]1(C)C(=O)NO [Example 219, (1S-cis)-4-[(2,6-Dichlorobenzoyl)amino]-N-[[3-[(hydroxyamino)carbonyl]-2,2,3-trimethyl-cyclopentyl]carbonyl]-L-phenylalanine] | ≤ 80 nM | ≤ 800 nM |
| CC1(C)[C@@H](C(=O)N[C@@H](Cc2ccc(C(=O)Nc3c(Cl)cccc3Cl)cc2)C(=O)O)CC[C@@]1(C)C(=O)O [Example 153] | 80 to 500 nM | 800 to 5000 nM |
| CC1(C)[C@@H](C(=O)N[C@@H](Cc2ccc(C(=O)Nc3c(Cl)cc(Cl)cc3Cl)cc2)C(=O)O)CC[C@@]1(C)C(=O)O [Example 223] | ≤ 80 nM | ≤ 800 nM |
| CC1(C)[C@@H](C(=O)N[C@@H](Cc2cn(Cc3ccc(Cl)cc3)cn2)C(=O)O)CC[C@@]1(C)C(=O)O [Example 28] | 80 to 500 nM | 800 to 5000 nM |
| CC1(C)[C@@H](C(=O)N[C@@H](Cc2ccc(NC(=O)c3cc(C(F)(F)F)ccc3Cl)cc2)C(=O)O)CC[C@@]1(C)C(=O)O [Example 232, (1S-cis)-N-[(3-Carboxy-2,2,3-trimethyl-cyclopentyl)carbonyl]-4-[(2-chloro-5-trifluoromethylbenzoyl)amino]-L-phenylalanine] | ≤ 80 nM | ≤ 800 nM |
| CNC(=O)[C@@H]1CCCN1C(=O)[C@]1(C)CC[C@H](C(=O)N[C@@H](Cc2ccc(NC(=O)c3c(Cl)cccc3Cl)cc2)C(=O)O)C1(C)C (relative stereo) [Example 215, [1S-[1α,3α(R*)]]-N-[3-[[2-[(Methylamino)carbonyl]-1-pyrrolidinyl]carbonyl]-2,2,3-trimethyl-cyclopentyl]carbonyl]-4-[(2,6-dichlorobenzoyl)amino]-L-phenylalanine monosodium salt] | 80 to 500 nM | ≤ 800 nM |
| CC1(C)[C@@H](C(=O)O)CC[C@@]1(C)NC(=O)N[C@]1(C)CC[C@H](C(=O)N[C@@H](Cc2ccc(NC(=O)c3c(Cl)cccc3Cl)cc2)C(=O)O)C1(C)C (relative stereo) [Example 236, [1S-[1α,3α(1S*,3R*)-N-]]-N-[[3[[[(3-Carboxy-1,2,2-trimethylcyclopentyl)amino]carbonyl]-amino]-2,2,3-trimethylcyclopentyl]carbonyl]-4-[(2,6-dichlorobenzoyl)-amino]-L-phenylalanine] | 80 to 500 nM | ≤ 800 nM |
| CC(C)(C)c1ccc(C(=O)Nc2ccc(C[C@H](NC(=O)[C@H]3CC[C@@](C)(C(=O)O)C3(C)C)C(=O)O)cc2)c(Cl)c1 [Example 253, (1S-cis)-N-[(3-Carboxy-2,2,3-trimethylcyclopentyl)carbonyl]-4-[[2-chloro-4-[(1,1-dimethyl)ethyl]benzoyl]amino]-L-phenylalanine] | 80 to 500 nM | 800 to 5000 nM |
| CC1(C)[C@@H](C(=O)N[C@@H](Cc2cn(Cc3ccc(Cl)cc3Cl)cn2)C(=O)O)CC[C@@]1(C)C(=O)O [Example 24] | 80 to 500 nM | 800 to 5000 nM |
| CC1(C)[C@@H](C(=O)N[C@@H](Cc2ccc(OCc3c(Cl)cccc3Cl)c(Cl)n2)C(=O)O)CC[C@@]1(C)C(=O)O (relative stereo) [Example 194, [1S-[1α(R*),3α]]-α-[[(3-Carboxy-2,2,3-trimethylcyclopentyl)carbonyl]amino]-6-chloro-5-[(2,6-dichlorophenyl)methoxy]-2-pyridinepropanoic acid] | 80 to 500 nM | 800 to 5000 nM |
| CC1(C)[C@@H](C(=O)N[C@@H](Cc2ccc(NC(=O)c3c(Cl)cccc3Cl)cc2)C(=O)O)CC[C@@]1(C)C(=O)NCCC(=O)O [Example 214] | ≤ 80 nM | ≤ 800 nM |
| CC1(C)[C@@H](C(=O)N[C@@H](Cc2cn(Cc3ccc4ccccc4c3)cn2)C(=O)O)CC[C@@]1(C)C(=O)O [Example 38] | 80 to 500 nM | 800 to 5000 nM |
| COC(=O)[C@H](Cc1ccc(NC(=O)c2cc(C(F)(F)F)ccc2Cl)cc1)NC(=O)[C@H]1CC[C@@](C)(C(=O)O)C1(C)C [Example 231, (1S-cis)-N-[(3-Carboxy-2,2,3-trimethyl-cyclopentyl)carbonyl]-4-[(2-chloro-5-trifluoromethylbenzoyl)amino]-L-phenylalanine methyl ester] | 500 to 1000 nM | ≤ 800 nM |
